IC50 data for 26 molecules are collected here from US20100311714A1, “1H-IMIDAZO[4,5-c]QUINOLINONE COMPOUNDS” (priority 2009, published 2010).

Each structure is given as a SMILES string. pIC50: −log10 of the molar value. Read-outs that look alike come from different tables or passages of the source. A value given as a limit tells only on which side of the number the result lay.

The subject of assay [1] is PKB Ser473 phosphorylation in Rat1-myr-HA-p110 delta cells. As to the kind of experiment: Reverse protein array, PKB Ser473 phosphorylation in Rat1-myr-HA-p110 delta cells. Format: cell-based. The note with it: Rattus norvegicus, 0.5 h, 30 minutes compound incubation, read-out: p-PKB/IC50_delta.
In assay [2] the test system is S6 Ribosomal Protein phosphorylation Ser235/236 in TSC1 null mouse embryo fibroblast (MEF) cells. The assay can be described thus: Reverse protein array, S6 Ribosomal Protein phosphorylation in TSC1 null MEF cells. Format: cell-based. To be noted: 1 h, TSC1-/- MEFs, 60 minutes. In outline: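 Phospho-S6 (Ser235/236) was quantified by reverse protein array of cell lysates with a phospho-specific primary antibody. […]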

With `CCNc1cc(-c2ccc3ncc4c(c3c2)n(-c2ccc(F)nc2C)c(=O)n4C)cnc1CO` [Example 7.9, 8-(5-Ethylamino-6-hydroxymethyl-pyridin-3-yl)-1-(6-fluoro-2-methyl-pyridin-3-yl)-3-methyl-1,3-dihydro-imidazo[4,5-c]quinolin-2-one], the figures for the pIC50 in assay [1] and in assay [2] (read-out: p-S6 IC50) were 7.38 and 8.30, respectively.
As for `CNc1cc(-c2ccc3ncc4c(c3c2)n(-c2ccc(F)nc2C)c(=O)n4C)cnc1CO` [Example 7.11, 1-(6-Fluoro-2-methyl-pyridin-3-yl)-8-(6-hydroxymethyl-5-methylamino-pyridin-3-yl)-3-methyl-1,3-dihydro-imidazo[4,5-c]quinolin-2-one], the pIC50 is 7.77 in assay [1] and 8.15 in assay [2] (read-out: p-S6 IC50).
The matching figures for `CCOCc1cc(-c2ccc3ncc4c(c3c2)n(-c2ccc(F)nc2C)c(=O)n4C)cnc1N` [Example 7.15, 8-(6-Amino-5-ethoxymethyl-pyridin-3-yl)-1-(6-fluoro-2-methyl-pyridin-3-yl)-3-methyl-1,3-dihydro-imidazo[4,5-c]quinolin-2-one]: 6.76 and 8.10.
Take `Cc1nc(F)ccc1-n1c(=O)n(C)c2cnc3ccc(-c4cncc(N)c4)cc3c21` [Example 7.16, 8-(5-Amino-pyridin-3-yl)-1-(6-fluoro-2-methyl-pyridin-3-yl)-3-methyl-1,3-dihydro-imidazo[4,5-c]quinolin-2-one]: the pIC50 in assay [1] is 7.11; in assay [2] (read-out: p-S6 IC50), 7.59.
The matching figures for `Cc1nc(F)ccc1-n1c(=O)n(C)c2cnc3ccc(-c4cnc(N)c(CO)c4)cc3c21` [Example 7.17, 8-(6-Amino-5-hydroxymethyl-pyridin-3-yl)-1-(6-fluoro-2-methyl-pyridin-3-yl)-3-methyl-1,3-dihydro-imidazo[4,5-c]quinolin-2-one]: 6.92 and 8.30.
`COc1ccc(-n2c(=O)n(C)c3cnc4ccc(-c5cnc(N)c(C(F)(F)F)c5)cc4c32)c(OC)n1` [Example 8.1, 8-(6-Amino-5-trifluoromethyl-pyridin-3-yl)-1-(2,6-dimethoxy-pyridin-3-yl)-3-methyl-1,3-dihydro-imidazo[4,5-c]quinolin-2-one]: the pIC50 was 7.97 in assay [1] and 8.97 in assay [2] (read-out: p-S6).
In the case of `COCCOc1cc(-c2ccc3ncc4c(c3c2)n(-c2ccc(OC)nc2OC)c(=O)n4C)cnc1C` [Example 8.9, 1-(2,6-Dimethoxy-pyridin-3-yl)-8-[5-(2-methoxy-ethoxy)-6-methyl-pyridin-3-yl]-3-methyl-1,3-dihydro-imidazo[4,5-c]quinolin-2-one], the pIC50 in assay [1] is 7.13; in assay [2] (read-out: p-S6 IC50), 8.40.
For the molecule `COc1ccc(-n2c(=O)n(C)c3cnc4ccc(-c5ccc6nccn6c5)cc4c32)c(OC)n1` [Example 8.10, 1-(2,6-Dimethoxy-pyridin-3-yl)-8-imidazo[1,2-a]pyridin-6-yl-3-methyl-1,3-dihydro-imidazo[4,5-c]quinolin-2-one], the pIC50 is 6.38 in assay [1] and 8.17 in assay [2] (read-out: p-S6 IC50).
The matching figures for `COCc1ncc(-c2ccc3ncc4c(c3c2)n(-c2ccc(OC)nc2OC)c(=O)n4C)cc1OC` [Example 8.12, 1-(2,6-Dimethoxy-pyridin-3-yl)-8-(5-methoxy-6-methoxymethyl-pyridin-3-yl)-3-methyl-1,3-dihydro-imidazo[4,5-c]quinolin-2-one]: 6.87 and 8.40.
For `COc1nc(N2CCNCC2)ccc1-n1c(=O)n(C)c2cnc3ccc(-c4cnc(N(C)C)nc4)cc3c21` [Example 9.4, 8-(2-Dimethylamino-pyrimidin-5-yl)-1-(2-methoxy-6-piperazin-1-yl-pyridin-3-yl)-3-methyl-1,3-dihydro-imidazo[4,5-c]quinolin-2-one] the same measures were 7.40 and 8.22.
For `CCNc1cc(-c2ccc3ncc4c(c3c2)n(-c2ccc(OC)nc2C)c(=O)n4C)cnc1C` [Example 11.7, 8-(5-Ethylamino-6-methyl-pyridin-3-yl)-1-(6-methoxy-2-methyl-pyridin-3-yl)-3-methyl-1,3-dihydro-imidazo[4,5-c]quinolin-2-one] the same measures were 8.08 and 8.70.
For the molecule `CCN(C)c1ccc(-n2c(=O)n(C)c3cnc4ccc(-c5ccc(NC)nc5)cc4c32)c(C)n1` [Example 12.1, 1-[6-(Ethyl-methyl-amino)-2-methyl-pyridin-3-yl]-3-methyl-8-(6-methylamino-pyridin-3-yl)-1,3-dihydro-imidazo[4,5-c]quinolin-2-one], the pIC50 in assay [1] is 7.34; in assay [2] (read-out: p-S6 IC50), over 9.34.
As to `CCNc1cc(-c2ccc3ncc4c(c3c2)n(-c2ccc(N(C)CC)nc2C)c(=O)n4C)cnc1C` [Example 12.2, 8-(5-Ethylamino-6-methyl-pyridin-3-yl)-1-[6-(ethyl-methyl-amino)-2-methyl-pyridin-3-yl]-3-methyl-1,3-dihydro-imidazo[4,5-c]quinolin-2-one], the pIC50 in assay [1] was over 8.34; in assay [2] (read-out: p-S6 IC50) it was 8.52.
`CCOc1ccc(-c2ccc3ncc4c(c3c2)n(-c2ccc(OCCOC)nc2C)c(=O)n4C)cn1` [Example 13.1, 8-(6-Ethoxy-pyridin-3-yl)-1-[6-(2-methoxy-ethoxy)-2-methyl-pyridin-3-yl]-3-methyl-1,3-dihydro-imidazo[4,5-c]quinolin-2-one]: the pIC50 in assay [1] was 6.95; in assay [2] (read-out: p-S6 IC50), 7.74.
Take `COCCOc1ccc(-n2c(=O)n(C)c3cnc4ccc(-c5cnc(N)c(C(F)(F)F)c5)cc4c32)c(C)n1` [Example 13.2, 8-(6-Amino-5-trifluoromethyl-pyridin-3-yl)-1-[6-(2-methoxy-ethoxy)-2-methyl-pyridin-3-yl]-3-methyl-1,3-dihydro-imidazo[4,5-c]quinolin-2-one]: the pIC50 in assay [1] was 7.53; in assay [2] (read-out: p-S6 IC50) it was 9.00.
Consider `CNc1ccc(-c2ccc3ncc4c(c3c2)n(-c2ccc(OCCOC)nc2C)c(=O)n4C)cn1` [Example 13.3, 1-[6-(2-Methoxy-ethoxy)-2-methyl-pyridin-3-yl]-3-methyl-8-(6-methylamino-pyridin-3-yl)-1,3-dihydro-imidazo[4,5-c]quinolin-2-one], for which the pIC50 is 7.41 in assay [1] and 8.52 in assay [2] (read-out: p-S6 IC50).
For the molecule `CCNc1cc(-c2ccc3ncc4c(c3c2)n(-c2ccc(OCCOC)nc2C)c(=O)n4C)cnc1C` [Example 13.4, 8-(5-Ethylamino-6-methyl-pyridin-3-yl)-1-[6-(2-methoxy-ethoxy)-2-methyl-pyridin-3-yl]-3-methyl-1,3-dihydro-imidazo[4,5-c]quinolin-2-one], the pIC50 is over 8.34 in assay [1] and 9.00 in assay [2] (read-out: p-S6 IC50).
For `CNc1ncc(-c2ccc3ncc4c(c3c2)n(-c2ccc(OCCOC)nc2C)c(=O)n4C)cn1` [Example 13.5, 1-[6-(2-Methoxy-ethoxy)-2-methyl-pyridin-3-yl]-3-methyl-8-(2-methylamino-pyrimidin-5-yl)-1,3-dihydro-imidazo[4,5-c]quinolin-2-one] the same measures were 7.43 and 8.96.
The matching figures for `CCOc1ccc(-c2ccc3ncc4c(c3c2)n(-c2ccc(C)nc2C)c(=O)n4C)cn1` [Example 14.2, 1-(2,6-Dimethyl-pyridin-3-yl)-8-(6-ethoxy-pyridin-3-yl)-3-methyl-1,3-dihydro-imidazo[4,5-c]quinolin-2-one]: 7.17 and 7.80.
On to `Cc1ccc(-n2c(=O)n(C)c3cnc4ccc(-c5cnc(N(C)C)nc5)cc4c32)c(C)n1` [Example 14.3, 8-(2-Dimethylamino-pyrimidin-5-yl)-1-(2,6-dimethyl-pyridin-3-yl)-3-methyl-1,3-dihydro-imidazo[4,5-c]quinolin-2-one], for which the figures for the pIC50 in assay [1] and in assay [2] (read-out: p-S6 IC50) were 6.91 and 8.00, respectively.
For `CNc1ncc(-c2ccc3ncc4c(c3c2)n(-c2ccc(C)nc2C)c(=O)n4C)cn1` [Example 14.4, 1-(2,6-Dimethyl-pyridin-3-yl)-3-methyl-8-(2-methylamino-pyrimidin-5-yl)-1,3-dihydro-imidazo[4,5-c]quinolin-2-one] the same measures were 7.49 and 8.15.
Take `Cc1ccc(-n2c(=O)n(C)c3cnc4ccc(-c5cnc(N)c(C(F)(F)F)c5)cc4c32)c(C)n1` [Example 14.5, 8-(6-Amino-5-trifluoromethyl-pyridin-3-yl)-1-(2,6-dimethyl-pyridin-3-yl)-3-methyl-1,3-dihydro-imidazo[4,5-c]quinolin-2-one]: the pIC50 is 7.84 in assay [1] and 9.00 in assay [2] (read-out: p-S6 IC50).
Consider `CCNc1cc(-c2ccc3ncc4c(c3c2)n(-c2ccc(C)nc2C)c(=O)n4C)cnc1C` [Example 14.6, 1-(2,6-Dimethyl-pyridin-3-yl)-8-(5-ethylamino-6-methyl-pyridin-3-yl)-3-methyl-1,3-dihydro-imidazo[4,5-c]quinolin-2-one], for which the pIC50 in assay [1] is over 8.34; in assay [2] (read-out: p-S6 IC50), 8.70.
In the case of `Cc1ccc(-n2c(=O)n(C)c3cnc4ccc(-c5cnc6c(ccn6C)c5)cc4c32)c(C)n1` [Example 14.7, 1-(2,6-Dimethyl-pyridin-3-yl)-3-methyl-8-(1-methyl-1H-pyrrolo[2,3-b]pyridin-5-yl)-1,3-dihydro-imidazo[4,5-c]quinolin-2-one], the pIC50 in assay [1] was 7.34; in assay [2] (read-out: p-S6 IC50), 8.52.
As for `Cc1ccc(-n2c(=O)n(C)c3cnc4ccc(-c5cncc(NC(C)C)c5)cc4c32)c(C)n1` [Example 14.8, 1-(2,6-Dimethyl-pyridin-3-yl)-8-(5-isopropylamino-pyridin-3-yl)-3-methyl-1,3-dihydro-imidazo[4,5-c]quinolin-2-one], the values for the pIC50 in assay [1] and in assay [2] (read-out: p-S6 IC50) were 7.46 and 8.70, respectively.
As to `COCCN(C)c1ccc(-n2c(=O)n(C)c3cnc4ccc(-c5cnc(N)c(C(F)(F)F)c5)cc4c32)c(C)n1` [Example 15.1, 8-(6-Amino-5-trifluoromethyl-pyridin-3-yl)-1-{6-[(2-methoxy-ethyl)-methyl-amino]-2-methyl-pyridin-3-yl}-3-methyl-1,3-dihydro-imidazo[4,5-c]quinolin-2-one], the pIC50 in assay [1] was 7.88; in assay [2] (read-out: p-S6 IC50), 9.00.
